Measured values from the supplement of paper PMC10307832.

Tests used:
Assay in all cases: relative viability (nuclei count vs DMSO), 5 days (fraction); higher = more cells survive
XMD13-2 + Linsitinib = compound: C1CC1C(=O)NC2=NNC3=C2C=CC(=C3)C4=CC(=CC=C4)C(=O)NC5CC5 [XMD13-2] + C[C@]1(O)C[C@@H](c2nc(-c3ccc4ccc(-c5ccccc5)nc4c3)c3c(N)nccn32)C1 [Linsitinib] (partner 1 µM)
Summary of the method: (§1)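 Cells from lung cancer lines were seeded into 1536-well plates and, one day later, dosed by pin tool. Treatments were either a single drug or a fixed dose of an anchor drug with five library-drug doses (not always all listed) in √10 steps. After 5 days, nuclei were stained in a one-step fixation (final 0.05% Triton X-100, 1% formaldehyde, 1 ug/ml Hoechst) and counted on 4× images, and relative viability is the treated-to-vehicle nuclei ratio, as the median of duplicate plates.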

XMD13-2 + AZD7762 = compound: C1CC1C(=O)NC2=NNC3=C2C=CC(=C3)C4=CC(=CC=C4)C(=O)NC5CC5 [XMD13-2] + NC(=O)Nc1cc(-c2cccc(F)c2)sc1C(=O)N[C@H]1CCCNC1 [AZD7762] (partner 0.2 µM)
Summary of the method: as §1

ALW-II-49-7 + Trametinib = compound: Cc1ccc(C(=O)Nc2cccc(C(F)(F)F)c2)cc1Nc1cncc(C(N)=O)c1 [ALW-II-49-7] + CC(=O)Nc1cccc(-n2c(=O)n(C3CC3)c(=O)c3c(Nc4ccc(I)cc4F)n(C)c(=O)c(C)c32)c1 [Trametinib] (partner 0.02 µM)
Summary of the method: as §1

Dasatinib + Navitoclax = compound: Cc1nc(Nc2ncc(C(=O)Nc3c(C)cccc3Cl)s2)cc(N2CCN(CCO)CC2)n1 [Dasatinib] + CC1(C)CCC(c2ccc(Cl)cc2)=C(CN2CCN(c3ccc(C(=O)NS(=O)(=O)c4ccc(N[C@H](CCN5CCOCC5)CSc5ccccc5)c(S(=O)(=O)C(F)(F)F)c4)cc3)CC2)C1 [Navitoclax] (partner 0.5 µM)
Summary of the method: as §1

Cell Line | relative viability (XMD13-2 + Linsitinib; first compound 0.05 µM) | relative viability (XMD13-2 + Linsitinib; first compound 0.1581 µM) | relative viability (XMD13-2 + Linsitinib; first compound 0.5 µM) | relative viability (XMD13-2 + Linsitinib; first compound 1.581 µM) | relative viability (XMD13-2 + Linsitinib; first compound 5 µM) | relative viability (XMD13-2 + AZD7762; first compound 0.05 µM) | relative viability (XMD13-2 + AZD7762; first compound 0.1581 µM) | relative viability (XMD13-2 + AZD7762; first compound 0.5 µM) | relative viability (XMD13-2 + AZD7762; first compound 1.581 µM) | relative viability (XMD13-2 + AZD7762; first compound 5 µM) | relative viability (ALW-II-49-7 + Trametinib; first compound 0.08 µM) | relative viability (ALW-II-49-7 + Trametinib; first compound 0.253 µM) | relative viability (ALW-II-49-7 + Trametinib; first compound 0.8 µM) | relative viability (ALW-II-49-7 + Trametinib; first compound 8 µM) | relative viability (Dasatinib + Navitoclax; first compound 0.005 µM) | relative viability (Dasatinib + Navitoclax; first compound 0.01581 µM) | relative viability (Dasatinib + Navitoclax; first compound 0.05 µM) | relative viability (Dasatinib + Navitoclax; first compound 0.1581 µM) | relative viability (Dasatinib + Navitoclax; first compound 0.5 µM) | relative viability (ALW-II-49-7 + Trametinib; first compound 2.53 µM)
LOU-NH91 | 0.985 | 0.981 | 0.966 | 0.876 | 1.1 | 0.938 | 0.767 | 0.78 | 0.725 | 0.793 | 0.755 | 0.787 | 0.804 | 0.706 | 0.758 | 0.595 | 0.531 | 0.506 | 0.317 | –
NCI-H1915 | 1.15 | 1.13 | 1.07 | 1.1 | 1.09 | 0.675 | 0.774 | 0.708 | 0.696 | 0.646 | 0.305 | 0.383 | 0.334 | 0.262 | 0.803 | 0.728 | 0.75 | 0.44 | 0.261 | 0.251
NCI-H1734 | 0.893 | 0.996 | 0.938 | 0.784 | 0.743 | 0.66 | 0.673 | 0.548 | 0.501 | 0.493 | 0.641 | 0.749 | 0.668 | 0.593 | 0.729 | 0.695 | 0.629 | 0.404 | 0.374 | 0.622
HCC-15 | 0.936 | 0.869 | 0.903 | 0.947 | 0.599 | 1.35 | 1.15 | 1.17 | 1.22 | 1.24 | 0.396 | 0.4 | 0.399 | 0.387 | 0.692 | 0.528 | 0.555 | 0.332 | 0.239 | 0.353
HCC-366 | 0.809 | 0.54 | 0.749 | 0.647 | 0.736 | 0.325 | 0.388 | 0.308 | 0.427 | 0.355 | 0.33 | 0.361 | 0.404 | 0.288 | 0.561 | 0.601 | 0.39 | 0.569 | 0.217 | 0.275
NCI-H1355 | 0.973 | 0.834 | 0.851 | 0.825 | 0.894 | 0.854 | 0.881 | 0.787 | 0.636 | 0.793 | 0.371 | 0.467 | 0.474 | 0.438 | 0.858 | 0.653 | 0.92 | 0.534 | 0.376 | 0.384
LU99A | 0.609 | 0.552 | 0.591 | 0.445 | 0.463 | 0.378 | 0.501 | 0.442 | 0.327 | 0.312 | – | 0.622 | 0.62 | 0.399 | 0.748 | 0.924 | 0.88 | 0.828 | 0.385 | 0.374
LCLC-97TM1 | 0.206 | 0.157 | 0.187 | 0.176 | 0.178 | 0.249 | 0.26 | 0.231 | – | 0.254 | 0.184 | 0.207 | 0.198 | 0.223 | 0.448 | 0.488 | 0.579 | 0.413 | 0.282 | 0.161
